Laboratory results taken from ChEMBL document CHEMBL1121959, “Probes of the active site of norepinephrine N-methyltransferase: effect of hydrophobic and hydrophilic interactions on side-chain binding of amphetamine and alpha-methylbenzylamine” (J Med Chem, 1982).

Target: T1, Phenylethanolamine N-methyltransferase (Bos taurus, UniProt P10938)
T1 sequence (P10938 whole entry): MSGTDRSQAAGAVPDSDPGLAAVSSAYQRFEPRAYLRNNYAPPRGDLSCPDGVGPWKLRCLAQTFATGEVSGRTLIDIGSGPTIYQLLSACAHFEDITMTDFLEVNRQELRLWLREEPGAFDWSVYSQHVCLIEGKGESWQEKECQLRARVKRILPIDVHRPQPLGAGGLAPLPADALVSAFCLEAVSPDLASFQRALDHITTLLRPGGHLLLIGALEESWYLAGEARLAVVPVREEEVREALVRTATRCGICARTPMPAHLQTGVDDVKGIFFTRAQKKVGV
Experiment: Inhibitory activity against bovine adrenal norepinephrine N-methyl-transferase was determined

Structure (SMILES) | Ki [µM]
N[C@H](CO)CC1CCCCC1 | 125
N[C@@H](CO)CC1CCCCC1 | 33
C[C@H](N)Cc1ccccc1 [DEXTROAMPHETAMINE] | 442
NC(CO)CC1CCCCC1 (racemic) | 47
NC(CO)Cc1ccccc1 (racemic) | 385
CCCC(N)c1ccccc1 (stereo not given) | > 1000
N[C@@H](CO)c1ccccc1 | 88
NC(CC1CCCCC1)c1ccccc1 (stereo not given) | > 1000
NC(Cc1ccccc1)Cc1ccccc1 | > 1000
CCC(N)Cc1ccccc1 (stereo not given) | > 1000
CCCC(N)Cc1ccccc1 (stereo not given) | > 1000
NC(CO)c1ccccc1 (racemic) | 1220
N[C@H](CO)Cc1ccccc1 [L-PHENYLALANINOL] | 664
N[C@@H](CO)Cc1ccccc1 | 379
C[C@@H](N)Cc1ccccc1 [LEVAMFETAMINE] | 1380
